Values of other authors as cited in PMC9851200, “Multiparameter phenotypic screening for endogenous TFEB and TFE3 translocation identifies novel chemical series modulating lysosome function” (Autophagy, 2022).

What was measured:
Design in all cases: method as in original PKIS2 published data
[1] = molecular target: kinases (KINOMEscan panel) (Homo sapiens, UniProt P10721); conditions: Published KINOMEscan, ref original PKIS2 published data, cited from earlier work
[2] = molecular target: T1, kinases (KINOMEscan panel) (Homo sapiens, UniProt Q9Y2U5); conditions: MAP3K2; Published KINOMEscan; ref original PKIS2 published data; cited from earlier work
T1 sequence (Q9Y2U5 1-619): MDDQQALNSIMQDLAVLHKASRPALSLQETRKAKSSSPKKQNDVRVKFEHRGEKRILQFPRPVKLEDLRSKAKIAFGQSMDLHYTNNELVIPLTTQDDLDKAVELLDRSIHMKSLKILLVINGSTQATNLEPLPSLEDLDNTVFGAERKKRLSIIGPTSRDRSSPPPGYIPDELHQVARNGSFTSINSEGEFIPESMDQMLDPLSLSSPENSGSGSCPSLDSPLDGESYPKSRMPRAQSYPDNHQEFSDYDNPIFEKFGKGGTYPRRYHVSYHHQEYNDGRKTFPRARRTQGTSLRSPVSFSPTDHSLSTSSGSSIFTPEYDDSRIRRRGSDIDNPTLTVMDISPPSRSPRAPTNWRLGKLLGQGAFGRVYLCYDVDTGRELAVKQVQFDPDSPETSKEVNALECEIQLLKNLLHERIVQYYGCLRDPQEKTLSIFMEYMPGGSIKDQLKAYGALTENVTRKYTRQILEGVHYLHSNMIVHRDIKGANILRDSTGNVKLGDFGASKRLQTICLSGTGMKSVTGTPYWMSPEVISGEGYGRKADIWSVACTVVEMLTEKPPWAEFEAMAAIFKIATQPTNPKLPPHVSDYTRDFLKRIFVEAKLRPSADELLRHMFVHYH

[3] = molecular target: kinases (KINOMEscan panel) (Homo sapiens, UniProt Q9P0L2); conditions: Published KINOMEscan; ref original PKIS2 published data; cited from earlier work
kinases (KINOMEscan panel) (Homo sapiens, UniProt Q9P0L2), sequence (Q9P0L2 whole entry): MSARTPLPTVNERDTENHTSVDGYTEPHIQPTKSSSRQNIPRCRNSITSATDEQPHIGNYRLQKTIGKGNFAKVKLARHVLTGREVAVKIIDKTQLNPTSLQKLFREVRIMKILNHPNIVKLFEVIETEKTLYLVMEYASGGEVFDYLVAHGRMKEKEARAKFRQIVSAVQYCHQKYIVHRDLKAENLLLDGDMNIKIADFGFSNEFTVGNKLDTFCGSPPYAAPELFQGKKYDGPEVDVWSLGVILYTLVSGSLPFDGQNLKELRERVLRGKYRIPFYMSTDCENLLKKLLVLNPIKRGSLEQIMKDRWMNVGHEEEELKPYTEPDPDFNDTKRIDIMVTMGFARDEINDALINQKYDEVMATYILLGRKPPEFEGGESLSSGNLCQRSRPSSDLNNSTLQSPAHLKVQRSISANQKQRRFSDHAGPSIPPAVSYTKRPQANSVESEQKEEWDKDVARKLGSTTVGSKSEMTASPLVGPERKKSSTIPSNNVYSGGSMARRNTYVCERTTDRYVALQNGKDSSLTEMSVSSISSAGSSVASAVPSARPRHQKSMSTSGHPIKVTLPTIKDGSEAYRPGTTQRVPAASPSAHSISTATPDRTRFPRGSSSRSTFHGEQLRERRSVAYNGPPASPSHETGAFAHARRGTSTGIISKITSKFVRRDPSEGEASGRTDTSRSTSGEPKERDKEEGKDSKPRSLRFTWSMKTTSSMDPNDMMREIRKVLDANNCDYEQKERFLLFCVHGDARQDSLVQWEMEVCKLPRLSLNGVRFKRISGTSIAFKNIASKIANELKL

[4] = molecular target: kinases (KINOMEscan panel) (Homo sapiens, UniProt P19784); conditions: CSNK2A2; Published KINOMEscan; ref original PKIS2 published data; cited from earlier work
kinases (KINOMEscan panel) (Homo sapiens, UniProt P19784), sequence (P19784 whole entry): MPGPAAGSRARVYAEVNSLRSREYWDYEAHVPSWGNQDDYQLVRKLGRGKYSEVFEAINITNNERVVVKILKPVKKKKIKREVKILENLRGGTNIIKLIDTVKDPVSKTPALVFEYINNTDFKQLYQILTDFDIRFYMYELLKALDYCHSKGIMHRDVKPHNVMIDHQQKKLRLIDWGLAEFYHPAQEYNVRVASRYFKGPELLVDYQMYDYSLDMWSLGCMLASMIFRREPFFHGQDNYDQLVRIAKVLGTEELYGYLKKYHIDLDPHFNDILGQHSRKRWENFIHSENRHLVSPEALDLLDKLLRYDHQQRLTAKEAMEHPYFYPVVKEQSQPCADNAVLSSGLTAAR

[5] = molecular target: T2, kinases (KINOMEscan panel) (Homo sapiens, UniProt Q86YV6); conditions: kinase MYLK4; Published KINOMEscan; ref original PKIS2 published data; cited from earlier work
T2 sequence (Q86YV6 1-388): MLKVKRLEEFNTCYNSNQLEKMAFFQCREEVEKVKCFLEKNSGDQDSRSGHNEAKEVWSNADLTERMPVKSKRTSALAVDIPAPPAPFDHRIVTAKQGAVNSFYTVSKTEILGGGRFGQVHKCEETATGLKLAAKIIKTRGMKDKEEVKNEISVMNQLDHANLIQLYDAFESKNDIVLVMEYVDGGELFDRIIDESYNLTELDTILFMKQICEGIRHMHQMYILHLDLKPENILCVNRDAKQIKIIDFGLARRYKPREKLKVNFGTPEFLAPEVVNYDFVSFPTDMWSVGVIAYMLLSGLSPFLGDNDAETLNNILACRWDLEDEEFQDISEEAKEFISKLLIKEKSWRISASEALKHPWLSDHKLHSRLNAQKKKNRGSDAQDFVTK

[6] = molecular target: kinases (KINOMEscan panel) (Homo sapiens, UniProt P21860); conditions: ERBB3; Published KINOMEscan; ref original PKIS2 published data; cited from earlier work
kinases (KINOMEscan panel) (Homo sapiens, UniProt P21860), sequence (P21860 20-1342): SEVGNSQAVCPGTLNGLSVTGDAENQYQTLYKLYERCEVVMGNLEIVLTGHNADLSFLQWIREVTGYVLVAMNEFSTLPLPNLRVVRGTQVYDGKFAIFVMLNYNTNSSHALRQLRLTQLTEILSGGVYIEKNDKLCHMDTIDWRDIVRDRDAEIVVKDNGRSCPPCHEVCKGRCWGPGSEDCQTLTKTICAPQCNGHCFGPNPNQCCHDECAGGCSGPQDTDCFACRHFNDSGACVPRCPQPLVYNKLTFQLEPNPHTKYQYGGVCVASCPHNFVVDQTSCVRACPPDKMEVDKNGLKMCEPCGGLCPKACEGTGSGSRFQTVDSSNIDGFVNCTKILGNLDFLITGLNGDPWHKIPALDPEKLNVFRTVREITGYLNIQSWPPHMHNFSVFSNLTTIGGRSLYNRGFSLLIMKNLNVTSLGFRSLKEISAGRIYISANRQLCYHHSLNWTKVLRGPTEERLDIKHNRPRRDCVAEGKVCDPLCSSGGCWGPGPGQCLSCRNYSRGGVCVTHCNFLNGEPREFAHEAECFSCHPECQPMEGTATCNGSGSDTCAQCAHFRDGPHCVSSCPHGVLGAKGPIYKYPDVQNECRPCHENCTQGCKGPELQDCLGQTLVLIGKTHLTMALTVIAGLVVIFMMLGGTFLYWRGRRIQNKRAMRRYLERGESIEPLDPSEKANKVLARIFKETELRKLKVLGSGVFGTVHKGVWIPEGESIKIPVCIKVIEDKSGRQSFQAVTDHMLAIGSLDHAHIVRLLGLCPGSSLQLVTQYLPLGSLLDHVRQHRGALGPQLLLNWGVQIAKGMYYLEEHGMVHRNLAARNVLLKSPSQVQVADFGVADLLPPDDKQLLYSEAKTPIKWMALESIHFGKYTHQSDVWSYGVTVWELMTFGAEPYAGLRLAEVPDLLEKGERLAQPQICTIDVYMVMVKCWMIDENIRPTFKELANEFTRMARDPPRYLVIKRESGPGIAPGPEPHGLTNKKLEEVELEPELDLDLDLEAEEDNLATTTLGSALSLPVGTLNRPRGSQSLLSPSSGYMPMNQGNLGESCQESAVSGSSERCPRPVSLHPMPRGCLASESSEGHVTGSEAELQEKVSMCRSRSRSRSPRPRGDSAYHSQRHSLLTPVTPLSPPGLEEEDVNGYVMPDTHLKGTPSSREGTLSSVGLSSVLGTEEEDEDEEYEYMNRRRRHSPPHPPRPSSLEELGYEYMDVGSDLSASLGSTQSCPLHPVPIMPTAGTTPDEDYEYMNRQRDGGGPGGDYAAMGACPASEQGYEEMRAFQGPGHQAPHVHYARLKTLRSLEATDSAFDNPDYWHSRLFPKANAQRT

[7] = molecular target: T3, kinases (KINOMEscan panel) (Homo sapiens, UniProt Q6ZWH5); conditions: Published KINOMEscan; ref original PKIS2 published data; cited from earlier work
T3 sequence (Q6ZWH5 1-1172): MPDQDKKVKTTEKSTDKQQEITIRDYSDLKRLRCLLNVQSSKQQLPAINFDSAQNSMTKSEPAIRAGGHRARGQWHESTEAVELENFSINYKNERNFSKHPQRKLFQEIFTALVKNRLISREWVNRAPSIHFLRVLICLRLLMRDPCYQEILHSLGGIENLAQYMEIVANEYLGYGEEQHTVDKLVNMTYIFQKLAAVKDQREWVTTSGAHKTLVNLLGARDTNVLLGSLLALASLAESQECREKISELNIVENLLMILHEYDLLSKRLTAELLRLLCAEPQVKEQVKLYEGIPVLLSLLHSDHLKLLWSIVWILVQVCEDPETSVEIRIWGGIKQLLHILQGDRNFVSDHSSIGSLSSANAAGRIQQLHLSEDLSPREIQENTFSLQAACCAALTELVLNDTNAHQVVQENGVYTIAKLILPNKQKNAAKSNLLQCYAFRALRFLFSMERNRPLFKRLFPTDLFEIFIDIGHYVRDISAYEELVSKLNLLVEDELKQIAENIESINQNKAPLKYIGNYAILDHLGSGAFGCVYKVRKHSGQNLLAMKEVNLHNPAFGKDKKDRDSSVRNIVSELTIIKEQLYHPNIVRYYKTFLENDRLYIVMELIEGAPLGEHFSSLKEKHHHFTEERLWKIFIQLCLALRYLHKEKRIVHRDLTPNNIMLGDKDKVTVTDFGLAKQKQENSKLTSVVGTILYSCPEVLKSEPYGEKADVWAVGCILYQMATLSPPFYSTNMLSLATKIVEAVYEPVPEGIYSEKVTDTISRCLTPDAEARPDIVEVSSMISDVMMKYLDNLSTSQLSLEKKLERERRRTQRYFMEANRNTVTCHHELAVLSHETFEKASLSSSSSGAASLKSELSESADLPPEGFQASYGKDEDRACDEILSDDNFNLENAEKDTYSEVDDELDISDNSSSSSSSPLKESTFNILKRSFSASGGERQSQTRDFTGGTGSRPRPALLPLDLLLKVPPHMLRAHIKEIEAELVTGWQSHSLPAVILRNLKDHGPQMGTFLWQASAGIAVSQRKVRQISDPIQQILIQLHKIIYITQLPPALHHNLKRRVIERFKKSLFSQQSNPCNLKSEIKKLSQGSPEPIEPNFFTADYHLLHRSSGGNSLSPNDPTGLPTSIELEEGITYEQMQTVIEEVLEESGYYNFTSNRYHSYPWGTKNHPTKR

[8] = molecular target: kinases (KINOMEscan panel) (Homo sapiens, UniProt Q2M2I8); conditions: AAK1; Published KINOMEscan; ref original PKIS2 published data; cited from earlier work
kinases (KINOMEscan panel) (Homo sapiens, UniProt Q2M2I8), sequence (Q2M2I8 whole entry): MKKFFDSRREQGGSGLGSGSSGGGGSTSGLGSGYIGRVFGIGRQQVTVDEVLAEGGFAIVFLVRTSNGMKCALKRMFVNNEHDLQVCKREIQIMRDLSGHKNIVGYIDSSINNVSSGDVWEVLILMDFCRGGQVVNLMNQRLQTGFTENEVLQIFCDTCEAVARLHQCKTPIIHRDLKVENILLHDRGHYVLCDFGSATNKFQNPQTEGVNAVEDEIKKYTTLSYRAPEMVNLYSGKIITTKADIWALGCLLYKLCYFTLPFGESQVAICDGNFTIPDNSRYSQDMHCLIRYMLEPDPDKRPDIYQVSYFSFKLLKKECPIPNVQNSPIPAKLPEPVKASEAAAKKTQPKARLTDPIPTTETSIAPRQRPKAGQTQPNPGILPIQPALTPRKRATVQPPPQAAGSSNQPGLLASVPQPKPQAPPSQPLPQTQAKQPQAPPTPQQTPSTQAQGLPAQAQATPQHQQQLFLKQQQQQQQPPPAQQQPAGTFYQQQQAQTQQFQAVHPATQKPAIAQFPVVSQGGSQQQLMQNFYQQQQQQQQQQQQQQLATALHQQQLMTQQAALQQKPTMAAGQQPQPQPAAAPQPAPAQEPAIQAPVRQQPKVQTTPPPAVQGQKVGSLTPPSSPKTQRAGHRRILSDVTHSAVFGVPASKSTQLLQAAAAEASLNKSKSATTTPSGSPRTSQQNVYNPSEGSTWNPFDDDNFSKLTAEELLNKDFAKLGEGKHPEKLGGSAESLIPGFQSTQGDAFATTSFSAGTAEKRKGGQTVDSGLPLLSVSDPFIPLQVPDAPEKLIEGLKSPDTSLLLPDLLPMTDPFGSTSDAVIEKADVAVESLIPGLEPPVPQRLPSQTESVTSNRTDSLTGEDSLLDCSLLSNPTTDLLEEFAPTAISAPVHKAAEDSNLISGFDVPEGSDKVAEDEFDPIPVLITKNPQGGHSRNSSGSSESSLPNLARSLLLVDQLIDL

kinases (KINOMEscan panel) (Homo sapiens, UniProt P10721), sequence (P10721 26-976): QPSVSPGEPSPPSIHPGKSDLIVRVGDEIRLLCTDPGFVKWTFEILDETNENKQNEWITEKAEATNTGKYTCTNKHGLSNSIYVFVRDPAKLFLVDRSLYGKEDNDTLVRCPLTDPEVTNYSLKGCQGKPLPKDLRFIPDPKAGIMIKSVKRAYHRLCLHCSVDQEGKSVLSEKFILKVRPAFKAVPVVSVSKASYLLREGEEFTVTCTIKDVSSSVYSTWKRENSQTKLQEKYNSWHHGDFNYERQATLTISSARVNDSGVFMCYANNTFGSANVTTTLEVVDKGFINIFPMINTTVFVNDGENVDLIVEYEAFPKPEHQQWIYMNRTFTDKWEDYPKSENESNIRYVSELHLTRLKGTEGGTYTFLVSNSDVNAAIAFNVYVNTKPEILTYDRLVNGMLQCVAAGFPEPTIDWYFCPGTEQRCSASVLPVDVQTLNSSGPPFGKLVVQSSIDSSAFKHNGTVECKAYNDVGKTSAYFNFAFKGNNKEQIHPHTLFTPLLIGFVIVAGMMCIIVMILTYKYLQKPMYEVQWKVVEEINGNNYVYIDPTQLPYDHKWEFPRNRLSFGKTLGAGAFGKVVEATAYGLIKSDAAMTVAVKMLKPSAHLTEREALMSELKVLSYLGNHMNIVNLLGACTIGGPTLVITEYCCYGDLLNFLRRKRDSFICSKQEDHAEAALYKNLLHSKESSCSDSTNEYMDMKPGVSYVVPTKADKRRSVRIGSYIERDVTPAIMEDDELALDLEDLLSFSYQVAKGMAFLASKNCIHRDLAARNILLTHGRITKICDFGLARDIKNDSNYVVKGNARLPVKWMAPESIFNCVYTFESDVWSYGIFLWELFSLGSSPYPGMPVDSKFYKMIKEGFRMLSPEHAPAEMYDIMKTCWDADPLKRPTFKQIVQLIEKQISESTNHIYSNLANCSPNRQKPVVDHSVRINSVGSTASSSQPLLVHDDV

SMILES: Cc1cccc(-c2nc(Nc3ccncc3)c3ccccc3n2)n1 [NK215]
- KINOMEscan KIT-autoinhibited ([1]; KIT-autoinhibited): 0
- KINOMEscan KIT ([1]; KIT): 10
- KINOMEscan MAP3K2 [2]: 0
- KINOMEscan MARK1 [3]: 0
- KINOMEscan CSNK2A2 [4]: 0
- KINOMEscan MYLK4 [5]: 7
- KINOMEscan ERBB3 [6]: 43
- KINOMEscan NEK10 [7]: 0
- KINOMEscan AAK1 [8]: 2
